Where “and” joins values, the source holds several entries; their conditions need not be identical. Equal entries are not always repeated. Where two headings read alike, the source gives them in different places.
Tests used:
[1] = test system: human foreskin fibroblasts (HFF); assay: alamarBlue viability assay on HFF; type: cell-based; settings: Fibroblast, 120 h, 5 days
Description: For testing growth inhibitory effects on confluent host cells, cells were seeded in 96-well plates (10,000 cells per well for HFF and 50,000 cells per well for RH cells), in DMEM containing FBS (10%) and antibiotics (100 U penicillin, 100 μg streptomycin and 0.25 μg amphotericin B per mL medium) and were cultured overnight at 37°C, 5% CO2. Thereafter the drugs (10 μM) were added and diluted in a serial 1:2 dilutions down to 20 nM. The concentration range was further adjusted in subsequent setups. For testing growth inhibitory effects on proliferating cells, cells were seeded at 1,000 (HFF) and 5,000 (RH) cells per well, and were allowed to attach for 5 hours at 37°C before addition of the drugs. After 5 days of culture, cell viability was assessed by alamarBlue assay.

[2] = test system: E. multilocularis germinal layer cells; assay: CellTiter-Glo viability assay on germinal layer cell cultures; type: cell-based; settings: Echinococcus multilocularis, 120 h, 5 days, read-out: E.m. GL cells (IC50)
Description: To assess the effects of MMV665807 on the viability of parasite cells, germinal layer cells were extracted according to Spiliotis et al. After overnight aggregate formation, 15 units of cells were distributed to a black 384 well plate (Nunc, Thermo Scientific, Reinach, Switzerland) in 12.5 μL medium. A concentration series (final concentrations of 3, 1, 0.3, 0.1, 0.03, 0.01 μM) of MMV665807, MMV665794 and mefloquine were prepared in medium and added 1:2 to the cells. For mefloquine, the concentration range was adjusted in a subsequent setup up to 100 μM. As negative control, DMSO was added accordingly. After 5 days of culture at 37°C under humid nitrogen atmosphere, 25 μL CellTiter-Glo (Promega, Dübendorf, Switzerland) including 1% TritonX-100 was added. Plates were incubated for 15 minutes on a shaker at room temperature and complete disruption of all cell aggregates was checked for before measurement of luminescence on a 2300 Enspire multilabel reader (Perkin-Elmer). Mean values and standard deviations were calculated and DMSO values set to 100% viability. The IC50 value was calculated in Microsoft Excel 2010 after logit-log transformation and averages as well as standard deviations of four independent setups were calculated.

[3] = test system: E. multilocularis metacestode vesicles; settings: 12 days, alamarBlue vesicle viability assay
[4] = test system: newly transformed schistosomula; set-up: method as in PMID 24416463; settings: in vitro; read-out: IC50 against newly transformed schistosomula; cited from earlier work
adult worms = test system: adult worms; set-up: method as in PMID 24416463; settings: in vitro; read-out: IC50 against adult worms; cited from earlier work
murine macrophages = test system: murine macrophages; set-up: method as in PMID 23211970; settings: cited from earlier work
[5] = set-up: method as in earlier work; settings: ref MMV; cited from earlier work
[6] = set-up: method as in earlier work; settings: HMS, Mouse; ref MMV; cited from earlier work
[7] = set-up: method as in earlier work; settings: HMS, Human; ref MMV; cited from earlier work
[8] = set-up: method as in earlier work; settings: MMS, Human; ref MMV; cited from earlier work
[9] = set-up: method as in earlier work; settings: MMS, Mouse; ref MMV; cited from earlier work
[10] = set-up: method as in earlier work; settings: PLS, ref MMV; cited from earlier work
[11] = set-up: method as in earlier work; settings: PLS, ref MMV; cited from earlier work; remark: listed apart in the source
hERG = test system: hERG; set-up: method as in earlier work; settings: ref MMV, cited from earlier work

## O=C(Nc1cccc(C(F)(F)F)c1)c1cc(Cl)ccc1O [MMV665807]
[1]; confluent cells, read-out: Confluent HFF (IC50)
  IC50: 29.2 ± 0.06 µM
[1]; proliferating cells, read-out: Preconfluent HFF (IC50)
  IC50: 4.8 ± 0.59 µM
[2]
  IC50: 0.6 ± 0.37 µM
[3]
  lowest concentration that almost completely abolishes viability of the metacestode tissue: 1.6 µM
[4]
  IC50: 1.8 µM
Adult worms
  IC50: 0.6 to 1.3 µM
Murine macrophages
  IC50: 5.9 µM
[5]
  Kinetic Solubility pH=7.4: 1.12 µg/mL and 3.55 µM
[6]
  CLint: 302.9 mL/min/kg
  t½: 27.2 min
[7]
  CLint: 107.6 mL/min/kg
  t½: 23.3 min
[8]
  CL: 66.8 µL/min/mg
  CLh: 15.9 mL/min/kg
  CLint: 66.1 mL/min/kg
  T1/2: 41.5 min
[9]
  CL: 190.4 µL/min/mg
  CLh: 80.4 mL/min/kg
  CLint: 754.0 mL/min/kg
  T1/2: 14.6 min
[10]
  % Remaining after Incubation (60 min) Human Plasma: 83.2%
[11]
  % Remaining after Incubation (60 min) CD-1 Mouse Plasma: 102.5%
hERG; 1uM
  hERG % I (1uM): 18%
hERG; 11uM
  hERG % I (11uM): 40%
hERG
  hERG activity level: Weakly active

From paper PMC4788259 (PLoS Neglected Tropical Diseases, 2016)
